Source: patent publication US20120219543A1, “METHODS AND PHARMACEUTICAL COMPOSITIONS FOR THE TREATMENT OF DISORDERS OF GLUCOSE HOMEOSTASIS” (priority 2009, published 2012)
Entries after “also recorded” stand apart in the source; their conditions may differ.

Tests used:
[1] = system: E12.5 pancreases from WT (CFTR+/+) mice; assay: Organ culture of E12.5 pancreases from WT (Cftr+/+) mice, insulin-positive cell area; assay type: cell-based; conditions: 10 μM GlyH-101, 6 days of culture
Procedure: (§1) FIG. 1: Effects of GlyH-H101 on endocrine cell development. Quantification by real-time PCR of insulin (A) and MafA (B) mRNA transcripts in E 13.5 Rat pancreases before (D0) and after 1, 3, 5 and 7 days of culture (D1, D3, D5 and D7 respectively) with or without 10 μM GlyH-101. Each data point represents the mean±sem of at least four independent experiments ***, p<0.001. (C) Immunohistological analysis of E13.5 Rat pancreases cultured 5 days in the presence or in absence of 10 μM GlyH-101. Insulin and amylase staining were respectively in red and green. Nuclei were stained in blue with Hoechst. Scale bar: 50 μm (D). β cell differentiation was evaluated by quantification of the absolute surface area occupied by insulin staining in E 13.5 Rat pancreases after 5 days of culture in presence or in absence of 10 μM GlyH-101. Values are means±sem of at least three independent experiments *, p<0.05; (E) Quantification by real-time PCR of Ngn3 transcripts in E13.5 Rat pancreases before (D0) and after 1, 3, 5 and 7 days of culture (D0, D1, D3, D5 and D7 respectively) with or without 10 μM GlyH-101. […] (G) Quantification of the number of NGN3 positive-cells in E13.5 Rat pancreases cultured for 5 days in presence or in absence of 10 μM GlyH-101. […]
(§2) To quantify the surface area of insulin, glucagon, PCSK1/3, CPA and amylase-expressing cells, all sections of each pancreatic rudiment were digitized. […]

[2] = system: E13.5 Rat embryonic pancreases; assay: Organ culture of E13.5 rat embryonic pancreases: morphology, immunohistochemistry and surface/cell quantification; assay type: cell-based
Description: (§3) Pregnant Wistar rats were purchased from the Janvier Breeding centre (CERJ, LeGenet, France). Cftr-knockout (Cftr−/−) and wild-type (Cftr+/+) embryos were obtained from the progeny of heterozygous-heterozygous for the S489X mutation (Snouwaert et al. 1992) matings (CDTA, Orléans, France). The first day postcoitum was taken as embryonic day (E)0.5. Pregnant rats were killed with CO2 asphyxiation and pregnant mice by cervical dislocation according to guidelines issued by the French Animal Care Committee. Dorsal pancreatic buds from E13.5 rat and E12.5 mice embryos were dissected as described previously (Miralles et al. 1998). Briefly, the stomach, pancreas and a small portion of the intestine were dissected together, and then the pancreas primordium was isolated.
(§4) Dorsal pancreatic rudiments were cultured on 0.45 μm filters (Millipore) at the air-medium interface in a 35 mm sterile Petri dishes containing 2 ml RPMI-1640 medium (Invitrogen) supplemented with 100 U/ml penicillin, 100 μg/ml streptomycin, 10 mmol/L HEPES, 2 mmol/L L-glutamine, 1× non-essential aminoacids (Invitrogen) and 10% heat-inactivated fetal calf serum (HyClone, Logan, Utah, USA). Glibenclamide (MP Biomedical), and Glycine hydrazide (GlyH-101)(Calbiochem), used at the indicated concentrations, were first dissolved as concentrated solutions in dimethylsulfoxide DMSO (Sigma), the final concentration of DMSO in the culture medium was less than 0.5% (vol/vol). Glibenclamide and GlyH-101 were added to the media daily. The cultures were incubated at 37° C. in a humidified atmosphere composed of 95% air and 5% CO2. At the end of the culture period, the pancreases were photographied, and fixed as described below or harvested for RNA extraction.
The pancreatic rudiments were fixed in 10% formalin, pre-embedded in agarose gel (4% of type VII low-gelling-temperature agarose [Sigma] in H2O) and embedded in paraffin. Immunohistochemistry was performed on 4-μm paraffin sections as previously described) (Duvillie et al. 2006). The primary antibodies were mouse anti insulin (1/2000; Sigma), rabbit anti-glucagon (1/1000; Diasorin), rabbit anti-amylase (1/300; Sigma), rabbit anti-carboxypeptidase A (CPA) (1/600; Biogenesis, Kidlington, Oxford, UK), rabbit anti-PDX1 (1/1000) (Duvillie et al. 2006) mouse anti-BrdU (1/2; Amersham Biosciences, Buckingham, UK), rabbit anti-Proprotein Convertase Subtilisin/Kexin 1/3 (PCSK1/3), rabbit anti-Ngn3 (1/100, (Guillemain et al. 2007) The fluorescent secondary antibodies were fluorescein anti-rabbit antibody (1/200; Jackson Immunoresearch, Baltimore, Md., USA), fluorescein goat anti-rabbit Alexa Fluor 488 (1/400; Invitrogen) and Texas red anti-mouse antibody (1/200; Jackson). Nuclei were stained in blue with Hoechst 33342 (0.3 μg/ml; Invitrogen). Ngn3 detection was performed as previously described (Guillemain et al. 2007) using the Vectastain elite ABC kit (Vector laboratories).
(§5) To quantify the surface area of insulin, glucagon, PCSK1/3, CPA and amylase-expressing cells, all sections of each pancreatic rudiment were digitized. Alternate sections were examined to avoid counting the same cell twice. The surface of insulin, glucagon, PCSK1/3, CPA, amylase and Hoechst stainings were quantified using Iplab (Scanalytics). The stained areas were summed to obtain the total surface area per rudiment in mm^2. To measure proliferation of the early progenitors expressing PDX1, we counted the frequency of BrdU positive progenitors expressing PDX1 among 3000 early progenitors expressing PDX1 per rudiment. To quantify the absolute number of NGN3-expressing cells, pancreatic rudiments were sectioned and all sections were stained with an anti-NGN3 antibody. Positive cells were counted on all sections of each pancreatic rudiment. A minimum of three rudiments was analyzed per condition.

[3] = system: mRNA transcripts (insulin, MafA, ZnT-8, Ngn3, NeuroD1, Pou3F4, somatostatin) in E13.5 Rat pancreases; assay: Real-time PCR of mRNA transcripts in cultured E13.5 rat pancreases; assay type: cell-based; conditions: for insulin mRNA level increase / ZnT-8 and MafA expression: Glib 5D
Description: as §3, §4
Total RNA was isolated from pools of at least three pancreases using the Qiagen RNeasy Microkit (Qiagen, Courtaboeuf, France) and reverse transcribed using Superscript reagents (Invitrogen). Real-time PCR was performed with the 7300 Fast real-time PCR system (Applied Biosystem) using either Taqman universal PCR master mix or SYBR green PCR master mix (Applied Bio system) with primers and labelled probes specific for each gene. Peptidylpropyl isomerase A/Cyclophilin A was used as endogenous control and E16.5 pancreas cDNA as calibrator sample. The data were analyzed by comparative cycle threshold method (Livak and Schmittgen 2001) and presented as the fold change in gene expression. At least three pools of explants were analysed by condition.

[4] = system: E13.5 Rat embryonic pancreases (PDX-1+ progenitors, insulin-expressing cells); assay: BrdU incorporation (proliferation) in cultured E13.5 rat pancreases; assay type: cell-based; conditions: 10 μM GlyH-101, D5, BrdU during last hour
Procedure: as §4, with “Glibenclamide and GlyH-101 were added to the media daily. The cultures were incubated at 37° C. in a humidified atmosphere composed of 95% air and 5% CO2. At the end of the culture period, the pancreases were photographied, and fixed as described below or harvested for RNA extraction.” left out
as §5, with “Alternate sections were examined to avoid counting the same cell twice.” left out, “The stained areas were summed to obtain the total surface area per rudiment in mm^2.” left out, “A minimum of three rudiments was analyzed per condition.” left out

[5] = system: E12.5 pancreases from knockout (CFTR-/-) mice; assay: Organ culture of E12.5 pancreases from Cftr knockout (Cftr-/-) mice, insulin-positive cell area; assay type: cell-based; conditions: 10 μM GlyH-101, 6 days of culture
Procedure: as §1, §2

[6] = system: beta cell mass of embryos of pregnant mice; assay: In vivo administration to pregnant mice, insulin staining surface of embryonic pancreas; conditions: E12.5 pregnant mice, 10 mg/kg/day for 5 days, intraperitoneal, embryos harvested at E18.5
Procedure: To evaluate its effects in vivo, GlyH 101 was administrated to a E12.5 pregnant mice for 5 days at 10 mg/kg/day (according to Yang et al. 2008) in a saline DMSO solution ([…]) by intraperitoneal injection two times a day. The embryos were harvested at E18.5 and the pancreas fixed for histological immunostaining. The surface of insulin staining was quantified and normalized to the whole pancreatic tissue.

[7] = system: human liver cell line HepG2; conditions: HepG2 cultured with 100 μM glibenclamide; cited from earlier work
CFTR channel = CFTR channel (Homo sapiens, UniProt P13569); conditions: open-channel block mechanism; cited from earlier work
[8] = 100 μM, 7 days of culture, vs absence

CFTR channel, sequence (P13569 whole entry): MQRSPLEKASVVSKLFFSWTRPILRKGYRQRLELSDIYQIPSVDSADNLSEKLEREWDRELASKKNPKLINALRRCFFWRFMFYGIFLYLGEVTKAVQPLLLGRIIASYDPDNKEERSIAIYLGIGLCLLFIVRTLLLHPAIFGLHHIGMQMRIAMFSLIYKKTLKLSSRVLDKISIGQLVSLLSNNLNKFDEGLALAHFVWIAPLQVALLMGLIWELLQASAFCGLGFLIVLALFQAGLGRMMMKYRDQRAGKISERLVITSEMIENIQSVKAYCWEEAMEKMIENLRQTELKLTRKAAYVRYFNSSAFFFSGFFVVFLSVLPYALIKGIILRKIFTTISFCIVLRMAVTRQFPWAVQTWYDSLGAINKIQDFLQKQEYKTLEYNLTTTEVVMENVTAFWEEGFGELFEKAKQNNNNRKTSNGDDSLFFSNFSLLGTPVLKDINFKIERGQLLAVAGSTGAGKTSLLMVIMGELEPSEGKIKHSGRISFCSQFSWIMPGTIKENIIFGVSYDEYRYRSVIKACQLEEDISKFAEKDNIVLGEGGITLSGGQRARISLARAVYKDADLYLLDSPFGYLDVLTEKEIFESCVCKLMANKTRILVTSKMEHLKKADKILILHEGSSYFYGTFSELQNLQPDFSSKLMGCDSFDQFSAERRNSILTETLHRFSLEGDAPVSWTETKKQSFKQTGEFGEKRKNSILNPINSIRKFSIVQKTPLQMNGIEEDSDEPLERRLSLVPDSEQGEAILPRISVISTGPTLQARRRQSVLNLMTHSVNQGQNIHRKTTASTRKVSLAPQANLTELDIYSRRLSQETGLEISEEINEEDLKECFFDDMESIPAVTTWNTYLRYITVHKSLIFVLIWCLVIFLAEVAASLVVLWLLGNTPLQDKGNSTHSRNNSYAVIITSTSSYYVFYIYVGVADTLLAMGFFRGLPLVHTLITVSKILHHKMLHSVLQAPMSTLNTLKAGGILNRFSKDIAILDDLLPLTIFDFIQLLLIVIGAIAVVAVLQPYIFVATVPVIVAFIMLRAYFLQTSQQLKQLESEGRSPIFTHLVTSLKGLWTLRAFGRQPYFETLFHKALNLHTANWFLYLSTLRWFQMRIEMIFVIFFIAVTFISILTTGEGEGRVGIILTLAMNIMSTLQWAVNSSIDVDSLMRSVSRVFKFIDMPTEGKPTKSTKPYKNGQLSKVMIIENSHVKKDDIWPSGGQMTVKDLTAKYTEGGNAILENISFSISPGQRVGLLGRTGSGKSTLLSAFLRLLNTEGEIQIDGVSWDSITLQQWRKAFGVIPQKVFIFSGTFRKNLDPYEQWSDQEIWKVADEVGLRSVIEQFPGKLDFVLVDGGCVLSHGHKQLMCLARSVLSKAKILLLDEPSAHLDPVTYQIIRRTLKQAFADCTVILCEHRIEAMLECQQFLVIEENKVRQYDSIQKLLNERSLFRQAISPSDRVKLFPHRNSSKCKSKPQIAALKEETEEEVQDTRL

SMILES: O=C(CNc1ccc2ccccc2c1)NN=Cc1cc(Br)c(O)c(Br)c1O [GlyH-101, N-2-napthalenyl-[(3,5-dibromo-2,4-dihydroxyphenyl)methylene]glycine hvdrazide]
- insulin+ cell area [1]: increase
- exocrine differentiation ([2]; 10 μM GlyH-101): did not observe any effects
- area occupied by insulin-positive cells ([2]; 10 μM GlyH-101, 5 days of culture): dramatic increase
- pool/number of Ngn3+ pancreatic endocrine progenitor cells ([2]; 10 μM GlyH-101, D5): increased number; also recorded: amplified and maintained
- increase of MafA mRNA transcripts ([3]; 10 μM GlyH-101, D3): more than twofold
- increase of insulin mRNA transcripts ([3]; 10 μM GlyH-101, D3): more than twofold
- increase in Ngn3 expression (real-time PCR) ([3]; 10 μM GlyH-101, D5): 8 fold
- insulin expression ([3]; 10 μM GlyH-101, after 5 and 7 days of culture): sixfold
- Ngn3 expression (real-time PCR) ([3]; 10 μM GlyH-101, from D1): strong increase
- proliferative rate of insulin-expressing cells (BrdU) [4]: No differences
- insulin+ cell area [5]: unable to modify
- beta cell mass (insulin staining surface normalized to whole pancreatic tissue) [6]: increased

SMILES: COc1ccc(Cl)cc1C(=O)NCCc1ccc(S(=O)(=O)NC(=O)NC2CCCCC2)cc1 [glibenclamide]
- toxicity and apoptosis [7]: no toxicity nor apoptosis
- CFTR channel inhibition (CFTR channel): inhibits CFTR channel in a dose-dependant manner
- pancreatic growth ([2]; 10 nM, 100 nM, 1, 10 or 100 μM glibenclamide vs control, 7 days of culture): similar
- number of NGN3+ cells (immunohistochemistry) ([2]; 100 μM, 5 days of culture, vs absence): threefold
- increase of the number of glucagon-expressing cells ([2]; 100 μM, 7 days of culture): 3.5 fold
- decrease of surface area occupied by the insulin-cell population [2, 8]: 70%
- surface area occupied by amylase- and carboxypeptidaseA-positive cells [2, 8]: No differences
- surface area occupied by PCSK1/3 staining in PDX-1+ cells ([2]; 100 μM, 7 days of culture, vs without): similar
- exocrine (acinar and ductal) development ([2]; 100 μM, 7 days, amylase, carboxypeptidaseA, SPP1 and CFTR markers): did not to modify
- apoptosis (Hoechst staining of the nuclei) ([2]; 10 and 100 μM, 7 days of culture, vs without): no difference
- overall size of pancreases (quantitative analysis) ([2]; 10 or 100 μM, 7 days of culture): lack of glibenclamide toxicity
- insulin-staining area (insulin-positive cells) ([2]; Glib 5D-treated pancreas): significant increase
- insulin-expressing cells observed ([2]; Glib-5D pancreases at D9, D11 or D14): A large number
- insulin-containing cells detected ([2]; glibenclamide present throughout 9, 11 or 14 days of culture): less
- pancreas development ([2]; up to 1 micromolar): did not affect
- NeuroD1 expression ([3]; 100 μM, D5): significantly increased; also recorded: twofold
- NeuroD1 expression ([3]; 100 μM, D7): enhanced
- Pou3F4/Brn4 mRNA level ([3]; 100 μM, D7): significant increase
- NeuroD1 mRNA levels ([3]; 100 μM, after 1 and 3 days of culture, vs absence): similar
- Ngn3 expression increase ([3]; 100 μM, after 5 days of culture, p<0.001): sevenfold; also recorded: seven
- increase in somatostatin expression ([3]; 100 μM, after 7 days of culture): twofold
- Ngn3 mRNA level ([3]; 100 μM, after 7 days of culture, p<0.001): dramatically higher; also recorded: threefold
- insulin expression (real-time PCR) ([3]; 100 μM, as early as D3): strongly reduced
- Ngn3 expression ([3]; 100 μM, day 1 and 3, vs absence): similar
- expression of β-cell markers ZnT-8 and MafA ([3]; 100 μM, over the 7 days of culture): did not affect
- reversal of low insulin content and reduced insulin gene transcription ([3]; 2 days after glibenclamide removal): completely reverted
- insulin mRNA level increase ([3]; D9, vs without): threefold
- insulin mRNA level increase ([3]; D11, vs without): twofold
- insulin mRNA level increase ([3]; D14, vs without): threefold
- ZnT-8 and MafA expression ([3]; after 9, 11 and 14 days of culture, p<0.01): dramatic increase
- ZnT-8 and MafA expression ([3]; after 7 days of culture): similar
- insulin mRNA level ([3]; glibenclamide only first 5 days of culture (Glib 5D), D7, vs without): identical
